Measured values taken from patent US5559128A, “3-substituted piperidines promote release of growth hormone” (Merck & Co., Inc., priority 1995, dated 1996).

Experiment: Log P
Details: Log P (min), Table I

SMILES | chromatographic logP
CC(C)(N)C(=O)N[C@H](Cc1c[nH]c2ccccc12)C(=O)N1CCCC(N(c2ccccc2)S(=O)(=O)c2ccccc2)C1 (single isomer, unassigned) [3b] | 3.2
CC(C)(N)C(=O)N[C@H](Cc1c[nH]c2ccccc12)C(=O)N1CCCC(N(Cc2ccccc2)S(=O)(=O)c2ccccc2)C1 (some centres unmarked) [3a] | 3.6
